Assay results taken from ChEMBL document CHEMBL1201861, “Genomics of Drug Sensitity in Cancer screening data, Wellcome Trust Sanger Institute”.
pIC50: −log10 of the molar value.

test system: LB2241-RCC; experiment: cells; assay type: functional, cell-based, Homo sapiens; settings: Homo sapiens, LB2241-RCC;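 further: cell viability assay measuring how strongly the cultured human renal carcinoma line is prevented from growing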
Description: SANGER: Inhibition of human LB2241-RCC cell growth in a cell viability assay.

Row | SMILES | pIC50
1 | Nc1ccn([C@@H]2O[C@H](CO)[C@@H](O)C2(F)F)c(=O)n1 [GEMCITABINE] | > 8.40

test system: HD-MY-Z; experiment: cells; assay type: functional, cell-based, Homo sapiens; settings: Homo sapiens, HD-MY-Z;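 further: growth inhibition of HD-MY-Z cells, read out with a cell viability assay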
Description: SANGER: Inhibition of human HD-MY-Z cell growth in a cell viability assay.

Row | SMILES | pIC50
2 | Nc1ccn([C@@H]2O[C@H](CO)[C@@H](O)C2(F)F)c(=O)n1 [GEMCITABINE] | 8.18

test system: RKO; experiment: cells; assay type: functional, cell-based, Homo sapiens; settings: Homo sapiens, RKO;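 further: growth inhibition of human RKO cells, read out with a cell viability assay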
Description: SANGER: Inhibition of human RKO cell growth in a cell viability assay.

Row | SMILES | pIC50
3 | Nc1ccn([C@@H]2O[C@H](CO)[C@@H](O)C2(F)F)c(=O)n1 [GEMCITABINE] | > 8.40

test system: NCI-H209; experiment: cells; assay type: functional, cell-based, Homo sapiens; settings: Homo sapiens, NCI-H209;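 further: growth inhibition of human NCI-H209 cells, measured by a cell viability assay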
Description: SANGER: Inhibition of human NCI-H209 cell growth in a cell viability assay.

Row | SMILES | pIC50
4 | Nc1ccn([C@@H]2O[C@H](CO)[C@@H](O)C2(F)F)c(=O)n1 [GEMCITABINE] | 7.28

test system: K562; experiment: cells; assay type: functional, cell-based, Homo sapiens; settings: Homo sapiens, K562
Description: SANGER: Inhibition of human K-562 cell growth in a cell viability assay.

Row | SMILES | pIC50
5 | Nc1ccn([C@@H]2O[C@H](CO)[C@@H](O)C2(F)F)c(=O)n1 [GEMCITABINE] | 6.48

test system: SF-539; experiment: cells; assay type: functional, cell-based, Homo sapiens; settings: Homo sapiens, SF-539;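 further: Read-out is a cell viability assay, with IC50 reflecting inhibition of cell growth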
Description: SANGER: Inhibition of human SF539 cell growth in a cell viability assay.

Row | SMILES | pIC50
6 | Nc1ccn([C@@H]2O[C@H](CO)[C@@H](O)C2(F)F)c(=O)n1 [GEMCITABINE] | 8.99

test system: NCI-H1838; experiment: cells; assay type: functional, cell-based, Homo sapiens; settings: Homo sapiens, NCI-H1838;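 further: growth inhibition of NCI-H1838 cells, determined with a cell viability readout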
Description: SANGER: Inhibition of human NCI-H1838 cell growth in a cell viability assay.

Row | SMILES | pIC50
7 | Nc1ccn([C@@H]2O[C@H](CO)[C@@H](O)C2(F)F)c(=O)n1 [GEMCITABINE] | < 5.99

test system: NCI-H23; experiment: cells; assay type: functional, cell-based, Homo sapiens; settings: Homo sapiens, NCI-H23;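 further: cell viability assay measuring growth inhibition of NCI-H23 cells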
Description: SANGER: Inhibition of human NCI-H23 cell growth in a cell viability assay.

Row | SMILES | pIC50
8 | Nc1ccn([C@@H]2O[C@H](CO)[C@@H](O)C2(F)F)c(=O)n1 [GEMCITABINE] | 6.68

test system: DJM-1; experiment: cells; assay type: functional, cell-based, Homo sapiens; settings: Homo sapiens, DJM-1;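 further: growth inhibition of human DJM-1 cells, read out by a cell viability assay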
Description: SANGER: Inhibition of human DJM-1 cell growth in a cell viability assay.

Row | SMILES | pIC50
9 | Nc1ccn([C@@H]2O[C@H](CO)[C@@H](O)C2(F)F)c(=O)n1 [GEMCITABINE] | 7.67

test system: Mo; experiment: cells; assay type: functional, cell-based, Homo sapiens; settings: Homo sapiens, Mo
Description: SANGER: Inhibition of human Mo-T cell growth in a cell viability assay.

Row | SMILES | pIC50
10 | Nc1ccn([C@@H]2O[C@H](CO)[C@@H](O)C2(F)F)c(=O)n1 [GEMCITABINE] | < 5.99

test system: MMAC-SF; experiment: cells; assay type: functional, cell-based, Homo sapiens; settings: Homo sapiens, MMAC-SF;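 further: growth inhibition of human MMAC-SF cells, read out with a cell viability assay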
Description: SANGER: Inhibition of human MMAC-SF cell growth in a cell viability assay.

Row | SMILES | pIC50
11 | Nc1ccn([C@@H]2O[C@H](CO)[C@@H](O)C2(F)F)c(=O)n1 [GEMCITABINE] | < 5.99

test system: ES8; experiment: cells; assay type: functional, cell-based, Homo sapiens; settings: Homo sapiens, ES8;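 further: growth inhibition of human ES8 cells, read out with a cell viability assay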
Description: SANGER: Inhibition of human ES8 cell growth in a cell viability assay.

Row | SMILES | pIC50
12 | Nc1ccn([C@@H]2O[C@H](CO)[C@@H](O)C2(F)F)c(=O)n1 [GEMCITABINE] | > 8.40

test system: MLMA; experiment: cells; assay type: functional, cell-based, Homo sapiens; settings: Homo sapiens, MLMA;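 further: growth inhibition of MLMA cells (human), determined through a cell viability readout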
Description: SANGER: Inhibition of human MLMA cell growth in a cell viability assay.

Row | SMILES | pIC50
13 | Nc1ccn([C@@H]2O[C@H](CO)[C@@H](O)C2(F)F)c(=O)n1 [GEMCITABINE] | 6.57

test system: NCI-H1770; experiment: cells; assay type: functional, cell-based, Homo sapiens; settings: Homo sapiens, NCI-H1770;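 further: growth inhibition of NCI-H1770 cells determined with a viability readout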
Description: SANGER: Inhibition of human NCI-H1770 cell growth in a cell viability assay.

Row | SMILES | pIC50
14 | Nc1ccn([C@@H]2O[C@H](CO)[C@@H](O)C2(F)F)c(=O)n1 [GEMCITABINE] | 7.26

test system: EKVX; experiment: cells; assay type: functional, cell-based, Homo sapiens; settings: Homo sapiens, EKVX;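 further: growth inhibition of human EKVX cells, read out with a cell viability assay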
Description: SANGER: Inhibition of human EKVX cell growth in a cell viability assay.

Row | SMILES | pIC50
15 | Nc1ccn([C@@H]2O[C@H](CO)[C@@H](O)C2(F)F)c(=O)n1 [GEMCITABINE] | < 5.99

test system: A4-Fuk; experiment: cells; assay type: functional, cell-based, Homo sapiens; settings: Homo sapiens, A4-Fuk;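 further: growth inhibition of A4-Fuk cells, read out by a cell viability assay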
Description: SANGER: Inhibition of human A4-Fuk cell growth in a cell viability assay.

Row | SMILES | pIC50
16 | Nc1ccn([C@@H]2O[C@H](CO)[C@@H](O)C2(F)F)c(=O)n1 [GEMCITABINE] | > 8.40

test system: NTERA-2-cl-D1; experiment: cells; assay type: functional, cell-based, Homo sapiens; settings: Homo sapiens, NTERA-2-cl-D1;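 further: inhibition of cell growth, measured with a cell viability assay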
Description: SANGER: Inhibition of human NTERA-S-cl-D1 cell growth in a cell viability assay.

Row | SMILES | pIC50
17 | Nc1ccn([C@@H]2O[C@H](CO)[C@@H](O)C2(F)F)c(=O)n1 [GEMCITABINE] | 8.78

test system: NCI-H1155; experiment: cells; assay type: functional, cell-based, Homo sapiens; settings: Homo sapiens, NCI-H1155;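 further: cell growth inhibition measured by a viability assay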
Description: SANGER: Inhibition of human NCI-H1155 cell growth in a cell viability assay.

Row | SMILES | pIC50
18 | Nc1ccn([C@@H]2O[C@H](CO)[C@@H](O)C2(F)F)c(=O)n1 [GEMCITABINE] | 6.31

test system: COLO-320-HSR; experiment: cells; assay type: functional, cell-based, Homo sapiens; settings: Homo sapiens, COLO-320-HSR;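 further: growth inhibition of COLO-320-HSR cells, determined with a cell viability assay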
Description: SANGER: Inhibition of human COLO-320-HSR cell growth in a cell viability assay.

Row | SMILES | pIC50
19 | Nc1ccn([C@@H]2O[C@H](CO)[C@@H](O)C2(F)F)c(=O)n1 [GEMCITABINE] | 6.65

test system: MOLT-4; experiment: cells; assay type: functional, cell-based, Homo sapiens; settings: Homo sapiens, MOLT-4;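 further: growth inhibition of MOLT-4 cells, determined with a cell viability readout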
Description: SANGER: Inhibition of human MOLT-4 cell growth in a cell viability assay.

Row | SMILES | pIC50
20 | Nc1ccn([C@@H]2O[C@H](CO)[C@@H](O)C2(F)F)c(=O)n1 [GEMCITABINE] | 7.19

test system: IST-MES1; experiment: cells; assay type: functional, cell-based, Homo sapiens; settings: Homo sapiens, IST-MES1;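 further: growth inhibition of IST-MES1 cells, measured with a cell viability assay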
Description: SANGER: Inhibition of human IST-MES1 cell growth in a cell viability assay.

Row | SMILES | pIC50
21 | Nc1ccn([C@@H]2O[C@H](CO)[C@@H](O)C2(F)F)c(=O)n1 [GEMCITABINE] | 6.11

test system: ES5; experiment: cells; assay type: functional, cell-based, Homo sapiens; settings: Homo sapiens, ES5;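 further: growth inhibition of human ES5 cells, read out by a cell viability assay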
Description: SANGER: Inhibition of human ES5 cell growth in a cell viability assay.

Row | SMILES | pIC50
22 | Nc1ccn([C@@H]2O[C@H](CO)[C@@H](O)C2(F)F)c(=O)n1 [GEMCITABINE] | < 5.99

test system: OS-RC-2; experiment: cells; assay type: functional, cell-based, Homo sapiens; settings: Homo sapiens, OS-RC-2;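 further: growth inhibition of human OS-RC-2 cells, measured by a cell viability assay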
Description: SANGER: Inhibition of human OS-RC-2 cell growth in a cell viability assay.

Row | SMILES | pIC50
23 | Nc1ccn([C@@H]2O[C@H](CO)[C@@H](O)C2(F)F)c(=O)n1 [GEMCITABINE] | 8.18

test system: HCC1187; experiment: cells; assay type: functional, cell-based, Homo sapiens; settings: Homo sapiens, HCC1187;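 further: growth inhibition of HCC1187 cells, read out with a cell viability assay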
Description: SANGER: Inhibition of human HCC1187 cell growth in a cell viability assay.

Row | SMILES | pIC50
24 | Nc1ccn([C@@H]2O[C@H](CO)[C@@H](O)C2(F)F)c(=O)n1 [GEMCITABINE] | < 5.99
